Test results as given in PubChem BioAssay AID330 (DTP/NCI, 2004).
“And” between values parts separate entries of the source, which are not always exact repeats. Equal values may be shown once. Inconclusive results and toxic doses are left out. How the source made its calls: active means survival T/C of 150% or more; inactive means T/C below 125% in these data.

System: P388 leukemia ip, CD2F1 mice, survival T/C
Assay: NCI In Vivo Anticancer Drug Screen. Data for tumor model P388 Leukemia (intraperitoneal) in CD2F1 (CDF1) mice
Settings: endpoint: median survival time, higher = longer survival
Outline: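 Mice carrying the transplanted tumor received test compound or vehicle. Survival was recorded in each group, and the value is the treated-group measurement divided by that of the vehicle-treated control group.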

[1] = dose: 50.0 mg/kg/injection, schedule: Q01DX009 (ip), vehicle: Klucel (hydroxypropylcellulose) (HPC)
[2] = dose: 100.0 mg/kg/injection, schedule: Q01DX009 (ip), vehicle: Klucel (hydroxypropylcellulose) (HPC)
[3] = dose: 200.0 mg/kg/injection, schedule: Q01DX009 (ip), vehicle: Klucel (hydroxypropylcellulose) (HPC)
[4] = dose: 25.0 mg/kg/injection, schedule: Q01DX005 (ip), vehicle: Klucel (hydroxypropylcellulose) (HPC)
[5] = dose: 50.0 mg/kg/injection, schedule: Q01DX005 (ip), vehicle: saline
[6] = dose: 100.0 mg/kg/injection, schedule: Q01DX005 (ip), vehicle: saline
[7] = dose: 200.0 mg/kg/injection, schedule: Q01DX005 (ip), vehicle: saline
[8] = dose: 50.0 mg/kg/injection, schedule: Q01DX009 (ip), vehicle: saline
[9] = dose: 100.0 mg/kg/injection, schedule: Q01DX009 (ip), vehicle: saline
[10] = dose: 50.0 mg/kg/injection, schedule: Q01DX009 (ip), vehicle: saline with Tween-80
[11] = dose: 100.0 mg/kg/injection, schedule: Q01DX009 (ip), vehicle: saline with Tween-80
[12] = dose: 200.0 mg/kg/injection, schedule: Q01DX009 (ip), vehicle: saline
[13] = dose: 50.0 mg/kg/injection, schedule: Q01DX005 (ip), vehicle: Klucel (hydroxypropylcellulose) (HPC)
[14] = dose: 100.0 mg/kg/injection, schedule: Q01DX005 (ip), vehicle: Klucel (hydroxypropylcellulose) (HPC)
[15] = dose: 25.0 mg/kg/injection, schedule: Q01DX009 (ip), vehicle: saline with Tween-80
[16] = dose: 200.0 mg/kg/injection, schedule: Q01DX009 (ip), vehicle: saline with Tween-80

Measured: T/C

O=S(Cc1ccc2c(c1)OCO2)c1ccccc1 (stereo not given)
inactive: dose: 100.0 mg/kg/injection, schedule: Q01DX001 (ip), vehicle: Klucel (hydroxypropylcellulose) (HPC) 101 % of control | dose: 200.0 mg/kg/injection, schedule: Q01DX001 (ip), vehicle: Klucel (hydroxypropylcellulose) (HPC) 100 % of control | dose: 400.0 mg/kg/injection, schedule: Q01DX001 (ip), vehicle: Klucel (hydroxypropylcellulose) (HPC) 100 % of control

CCOC(=O)C1C(=O)N2C(=O)C(NC(C)=O)=C(O)C2C1c1ccc(Cl)cc1 (stereo not given)
inactive: dose: 100.0 mg/kg/injection, schedule: Q04DX002 (ip), vehicle: saline with Tween-80 100 % of control | dose: 200.0 mg/kg/injection, schedule: Q04DX002 (ip), vehicle: saline with Tween-80 105 % of control | dose: 400.0 mg/kg/injection, schedule: Q04DX002 (ip), vehicle: saline with Tween-80 98 % of control

CC(C)(C)C(=O)/C=C/c1ccc(Cl)c(Cl)c1
inactive: [1] 104 % of control | [2] 107 % of control | [3] 99 % of control

C[C@H]1CC[C@@H]2[C@@H](C)[C@H]3[C@H](C[C@H]4[C@@H]5CC=C6C[C@@H](O)CC[C@]6(C)[C@H]5C[C@H](O)[C@]34C)N2C1
inactive: [4] 101 % of control and 105 % of control

COc1ccc(-c2sc(/N=C/c3cc(OC)c(OC)c(OC)c3)c(C#N)c2C)cc1OC
inactive: dose: 50.0 mg/kg/injection, schedule: Q04DX003 (ip), vehicle: saline with Tween-80 101 % of control | dose: 100.0 mg/kg/injection, schedule: Q04DX003 (ip), vehicle: saline with Tween-80 99 % of control | dose: 200.0 mg/kg/injection, schedule: Q04DX003 (ip), vehicle: saline with Tween-80 100 % of control | dose: 400.0 mg/kg/injection, schedule: Q04DX003 (ip), vehicle: saline with Tween-80 90 % of control

Cn1ncc2c(N)cc(=O)[nH]c21
inactive: dose: 100.0 mg/kg/injection, schedule: Q01DX001 (ip), vehicle: saline with Tween-80 101 % of control | dose: 200.0 mg/kg/injection, schedule: Q01DX001 (ip), vehicle: saline with Tween-80 94 % of control | dose: 400.0 mg/kg/injection, schedule: Q01DX001 (ip), vehicle: saline with Tween-80 104 % of control

COC(=O)[C@H]1[C@H]2CCOC1(c1cc(OC)c(OC)c(OC)c1)c1cc3c(cc1[C@H]2O)OCO3
inactive: dose: 4.5 mg/kg/injection, schedule: Q01DX009 (ip), vehicle: Klucel (hydroxypropylcellulose) (HPC) 102 % of control | dose: 9.0 mg/kg/injection, schedule: Q01DX009 (ip), vehicle: Klucel (hydroxypropylcellulose) (HPC) 104 % of control | dose: 18.0 mg/kg/injection, schedule: Q01DX009 (ip), vehicle: Klucel (hydroxypropylcellulose) (HPC) 96 % of control | dose: 36.0 mg/kg/injection, schedule: Q01DX009 (ip), vehicle: Klucel (hydroxypropylcellulose) (HPC) 100 % of control

CC(=O)C1OC1c1ccccn1 (stereo not given)
inactive: dose: 25.0 mg/kg/injection, schedule: Q01DX005 (ip), vehicle: saline 102 % of control | dose: 25.0 mg/kg/injection, schedule: Q01DX005 (ip), vehicle: suspension in saline 103 % of control | [5] 102 % of control | dose: 50.0 mg/kg/injection, schedule: Q01DX005 (ip), vehicle: suspension in saline 100 % of control | [6] 104 % of control | dose: 100.0 mg/kg/injection, schedule: Q01DX005 (ip), vehicle: suspension in saline 110 % of control | [7] 102 % of control | dose: 200.0 mg/kg/injection, schedule: Q01DX005 (ip), vehicle: suspension in saline 100 % of control

CS(=O)(=O)CC(=N\N)/C(CS(C)(=O)=O)=N/N
inactive: dose: 60.0 mg/kg/injection, schedule: Q01DX005 (ip), vehicle: saline 100 % of control | dose: 120.0 mg/kg/injection, schedule: Q01DX005 (ip), vehicle: saline 100 % of control | dose: 240.0 mg/kg/injection, schedule: Q01DX005 (ip), vehicle: saline 108 % of control

CC(C)CC(N)C(=O)NCCC(=O)O (stereo not given)
inactive: [5] 101 % of control | [6] 101 % of control | [7] 100 % of control

CS1(=O)=NC(=N)c2ccccc21 (stereo not given)
inactive: [8] 102 % of control | [9] 107 % of control

CCCCC(CCCC)=NNC(=S)SC
inactive: [10] 100 % of control | [11] 100 % of control

C=C1CCC2C(OC(=O)C2(O)COC(C)=O)C2C(=C)C(O)CC12 (stereo not given)
inactive: dose: 10.63 mg/kg/injection, schedule: Q01DX005 (ip), vehicle: Klucel (hydroxypropylcellulose) (HPC) 99 % of control | dose: 21.25 mg/kg/injection, schedule: Q01DX005 (ip), vehicle: Klucel (hydroxypropylcellulose) (HPC) 104 % of control | dose: 42.5 mg/kg/injection, schedule: Q01DX005 (ip), vehicle: Klucel (hydroxypropylcellulose) (HPC) 100 % of control | dose: 85.0 mg/kg/injection, schedule: Q01DX005 (ip), vehicle: Klucel (hydroxypropylcellulose) (HPC) 106 % of control | dose: 170.0 mg/kg/injection, schedule: Q01DX005 (ip), vehicle: Klucel (hydroxypropylcellulose) (HPC) 106 % of control

O=C(O)c1cc(N2C(=O)c3ccc4c5ccc6c7c(ccc(c8ccc(c3c48)C2=O)c75)C(=O)N(c2ccc(O)c(C(=O)O)c2)C6=O)ccc1O
inactive: [8] 98 % of control | [9] 91 % of control | [12] 90 % of control

CCC(C)C(NC(=O)C(Cl)Cl)C(=O)O (stereo not given)
inactive: [13] 96 % of control | [14] 96 % of control | dose: 200.0 mg/kg/injection, schedule: Q01DX005 (ip), vehicle: Klucel (hydroxypropylcellulose) (HPC) 99 % of control

C1=CC2OC2CCCCCCCC1 (mixture of isomers)
inactive: [15] 106 % of control | [10] 107 % of control | [11] 109 % of control

CNCCNc1ncc([N+](=O)[O-])s1
inactive: dose: 25.0 mg/kg/injection, schedule: Q01DX001 (ip), vehicle: saline 115 % of control and 118 % of control | dose: 50.0 mg/kg/injection, schedule: Q01DX001 (ip), vehicle: saline 122 % of control and 124 % of control

NC1CC2CCCCC2CC1(O)c1ccccc1 (stereo not given)
inactive: dose: 12.5 mg/kg/injection, schedule: Q01DX009 (ip), vehicle: Klucel (hydroxypropylcellulose) (HPC) 98 % of control | dose: 25.0 mg/kg/injection, schedule: Q01DX009 (ip), vehicle: Klucel (hydroxypropylcellulose) (HPC) 107 % of control | [1] 107 % of control

O=S(=O)(NCCSSCCNS(=O)(=O)c1ccc2ccccc2c1)c1ccc2ccccc2c1
inactive: [1] 91 % of control | [2] 92 % of control | [3] 88 % of control

COC(=O)c1ccc2cc1Nc1c(C#N)cnc(=S)n1-2
inactive: [10] 114 % of control | [11] 112 % of control | [16] 90 % of control

O=C(OCC1OC(n2cc(C(F)(F)F)c(=O)[nH]c2=O)CC1OC(=O)c1ccc([N+](=O)[O-])cc1)c1ccc([N+](=O)[O-])cc1 (stereo not given)
inactive: dose: 12.0 mg/kg/injection, schedule: Q01DX005 (ip), vehicle: Klucel (hydroxypropylcellulose) (HPC) 100 % of control | [4] 108 % of control | [13] 105 % of control and 108 % of control | [14] 107 % of control

O=c1cc[nH]cc1[N+](=O)[O-]
inactive: dose: 12.5 mg/kg/injection, schedule: Q01DX009 (ip), vehicle: distilled water + Tween-80 93 % of control | dose: 25.0 mg/kg/injection, schedule: Q01DX009 (ip), vehicle: distilled water + Tween-80 98 % of control | [15] 99 % of control | dose: 50.0 mg/kg/injection, schedule: Q01DX009 (ip), vehicle: distilled water + Tween-80 108 % of control | [10] 98 % of control | dose: 100.0 mg/kg/injection, schedule: Q01DX009 (ip), vehicle: distilled water + Tween-80 101 % of control | [11] 105 % of control | [9] 104 % of control and 108 % of control | dose: 200.0 mg/kg/injection, schedule: Q01DX009 (ip), vehicle: distilled water + Tween-80 107 % of control | [16] 104 % of control | [12] 100 % of control and 92 % of control

Oc1cc(CN2CCCCC2)c(O)cc1CN1CCCCC1
inactive: dose: 3.12 mg/kg/injection, schedule: Q01DX009 (ip), vehicle: saline 106 % of control | dose: 6.25 mg/kg/injection, schedule: Q01DX009 (ip), vehicle: saline 106 % of control | dose: 12.5 mg/kg/injection, schedule: Q01DX009 (ip), vehicle: saline 98 % of control | dose: 25.0 mg/kg/injection, schedule: Q01DX009 (ip), vehicle: saline 104 % of control

CN(C)CCOC1=Nc2ccccc2O/C1=C/c1ccccc1
inactive: [1] 100 % of control | [2] 111 % of control
